Counter-ions that a name gives are not always drawn. Like-named read-outs stand apart in the source and are kept apart here.
Target: T1, human AspH (His6-AspH315–758) (Homo sapiens, UniProt Q12797)
T1 construct: N-Terminally His6-tagged human AspH315–758 (His6-AspH315–758) was produced in Escherichia coli BL21 (DE3) cells; made in house; host or cells: Escherichia coli BL21 (DE3), pET-28a(+) vector
T1 sequence (Q12797 315-758): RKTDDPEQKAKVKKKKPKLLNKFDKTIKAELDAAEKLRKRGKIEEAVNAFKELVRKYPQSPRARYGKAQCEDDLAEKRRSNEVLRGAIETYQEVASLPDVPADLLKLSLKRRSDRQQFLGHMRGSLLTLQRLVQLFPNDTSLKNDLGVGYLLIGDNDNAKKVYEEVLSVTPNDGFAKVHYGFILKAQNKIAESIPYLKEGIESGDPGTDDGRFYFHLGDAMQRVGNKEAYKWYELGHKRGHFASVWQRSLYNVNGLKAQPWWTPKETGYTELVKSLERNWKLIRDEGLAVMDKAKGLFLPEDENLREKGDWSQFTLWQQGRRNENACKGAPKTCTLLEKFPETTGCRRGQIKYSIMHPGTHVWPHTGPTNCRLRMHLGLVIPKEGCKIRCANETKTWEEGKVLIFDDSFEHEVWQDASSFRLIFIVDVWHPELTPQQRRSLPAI
Experiment: SPE-MS AspH inhibition assay (hFX-CP101-119 substrate hydroxylation)
Assay type: biochemical

[1] = AspH-inhibitor screening, 384-well Plate 1
[2] = AspH-inhibitor screening, 384-well Plate 1, substrate conversion
[3] = AspH-inhibitor screening, Plate 1-duplicate
[4] = AspH-inhibitor screening, Plate 1-duplicate, substrate conversion

Plate 1 (% inhibition) [1] | Plate 1 (% conversion) [2] | Plate 1-duplicate (% inhibition) [3] | Plate 1-duplicate (% conversion) [4] | SMILES | Plate 1 (% conversion) | Plate 1 (% inhibition) | Plate 1-duplicate (% conversion) | Plate 1-duplicate (% inhibition)
9.55% | 45.34% | 7.71% | 48.22% | CC[C@H](Nc1ncnc2[nH]cnc12)c1nc2cccc(F)c2c(=O)n1-c1ccccc1 [Idelalisib] |  |  |  | 
-7.35% | 53.15% | -6.18% | 55.11% | Cn1cc(CNCC2CCN(c3ncc(C(=O)NO)cn3)CC2)c2ccccc21 [JNJ-26481585_Quisinostat] |  |  |  | 
5.18% | 47.36% | 4.86% | 49.63% | Cc1cccc(-c2nn3c(c2-c2ccnc4ccc(C(N)=O)cc24)CCC3)n1 [LY2157299] |  |  |  | 
-51.46% | 73.51% | -47.27% | 75.48% | Cc1cnc(NC(=O)Nc2cc(Br)c(C)cc2OC[C@@H]2CNCCO2)cn1 [LY2603618_Rabusertib] |  |  |  | 
10.44% | 44.93% | -5.64% | 54.84% | CN(C)C[C@@H]1CCn2cc(c3ccccc32)C2=C(C(=O)NC2=O)c2cn(c3ccccc23)CCO1.CS(=O)(=O)O [LY 333531 mesylate_Ruboxistaurin] |  |  |  | 
4.47% | 47.69% | -1.73% | 52.90% | Oc1ccc2c(c1)CC[C@H](c1ccccc1)[C@@H]2c1ccc(OCCN2CCCC2)cc1 [Lasofoxifene] |  |  |  | 
 | 47.43% | 4.54% | 49.79% | Nc1cccc2c1CN(C1CCC(=O)NC1=O)C2=O (stereo not drawn) [Lenalidomide] |  |  |  | 
-19.98% | 58.98% | -15.77% | 59.86% | COc1cc2nccc(Oc3ccc(NC(=O)NC4CC4)c(Cl)c3)c2cc1C(N)=O [Lenvatinib] |  |  |  | 
6.85% | 46.59% | 3.67% | 50.22% | N#Cc1ccc(C(c2ccc(C#N)cc2)n2cncn2)cc1 [Letrozole] |  |  |  | 
4.45% | 47.69% | 6.61% | 48.76% | Nc1ccccc1NC(=O)c1ccc(CNc2nccc(-c3cccnc3)n2)cc1 [MGCD0103_Mocetinostat] |  |  |  | 
5.75% | 47.09% | 1.85% | 51.12% | C=CCn1c(=O)c2cnc(Nc3ccc(N4CCN(C)CC4)cc3)nc2n1-c1cccc(C(C)(C)O)n1 [MK1775] |  |  |  | 
11.87% | 44.27% | 9.89% | 47.14% | O=C(O)CC[C@H]1CC[C@@](c2cc(F)ccc2F)(S(=O)(=O)c2ccc(Cl)cc2)CC1 [MK-0752] |  |  |  | 
-21.29% | 59.58% | -13.95% | 58.96% | NC1(c2ccc(-c3nc4ccn5c(=O)[nH]nc5c4cc3-c3ccccc3)cc2)CCC1 [MK-2206] |  |  |  | 
7.39% | 46.34% | 9.73% | 47.22% | Cl.NC(=O)c1cccc2cn(-c3ccc([C@@H]4CCCNC4)cc3)nc12 [MK-4827, HCl salt] |  |  |  | 

The next lines start with the compound.

SMILES | Plate 1 (% inhibition) [1] | Plate 1 (% conversion) [2] | Plate 1-duplicate (% inhibition) [3] | Plate 1-duplicate (% conversion) [4] | Plate 1 (% conversion) | Plate 1 (% inhibition) | Plate 1-duplicate (% conversion) | Plate 1-duplicate (% inhibition)
CC(C)n1nc(-c2ccc3oc(N)nc3c2)c2c(N)ncnc21 [INK128] | 4.97% | 47.46% | 4.58% | 49.77% |  |  |  | 
CC(=O)[C@]1(O)Cc2c(O)c3c(c(O)c2[C@@H](O[C@H]2C[C@H](N)[C@H](O)[C@H](C)O2)C1)C(=O)c1ccccc1C3=O [Idarubicin HCl] | 6.62% | 46.69% | 5.28% | 49.42% |  |  |  | 
O=P1(NCCCl)OCCCN1CCCl (stereo not drawn) [Ifosfamide] | 7.87% | 46.12% | 4.50% | 49.81% |  |  |  | 
CC(C)Cn1cnc2c(N)nc3ccccc3c21 [Imiquimod] | 3.84% | 47.98% | 5.27% | 49.43% |  |  |  | 
O=C(Nc1ccncc1)C(=O)c1cn(Cc2ccc(Cl)cc2)c2ccccc12 [Indibulin] | 45.36% | 28.80% | 2.65% | 50.73% |  |  |  | 
NC(=O)c1ccc(I)c([N+](=O)[O-])c1 [Iniparib (BSI-201, IND-71677)] | 6.32% | 46.83% | 5.00% | 49.56% |  |  |  | 
CCc1c2c(nc3ccc(OC(=O)N4CCC(N5CCCCC5)CC4)cc13)-c1cc3c(c(=O)n1C2)COC(=O)[C@]3(O)CC.Cl [Irinotecan hydrochloride] | -1.48% | 50.43% | 0.58% | 51.76% |  |  |  | 
CCc1c2c(nc3ccc(OC(=O)N4CCC(N5CCCCC5)CC4)cc13)-c1cc3c(c(=O)n1C2)COC(=O)[C@]3(O)CC [Irinotecan] | 1.66% | 48.98% | -3.53% | 53.79% |  |  |  | 
C/C(=C\c1csc(C)n1)[C@@H]1C[C@@H]2O[C@]2(C)CCC[C@H](C)[C@H](O)[C@@H](C)C(=O)C(C)(C)[C@@H](O)CC(=O)N1 [Ixabepilone] | -1.86% | 50.61% | -1.35% | 52.71% |  |  |  | 
CC(C)C[C@H](NC(=O)CNC(=O)c1cc(Cl)ccc1Cl)B1OC(=O)C(CC(=O)O)(CC(=O)O)O1 [Ixazomib citrate] | 72.42% | 16.31% | 72.94% | 15.87% |  |  |  | 
c1ccc2c(CCNc3ccc(Nc4ccncc4)cc3)c[nH]c2c1 [JNJ 26854165 (Serdemetan)] | 32.19% | 34.89% | 30.40% | 36.96% |  |  |  | 
CC(C)(C)Cn1c(N)nc2ccc(-c3[nH]c(C(C)(C)C)nc3-c3ccc(F)cc3)nc21 [LY2228820 (CP868569)] | -13.39% | 55.93% | -13.16% | 58.57% |  |  |  | 
Cc1cc(Nc2cc(CN3CCOCC3)c3nc(C)c(Cc4ccc(Cl)cc4F)n3n2)n[nH]1 [LY2784544_Gandotinib] | -63.83% | 79.23% | -64.31% | 83.93% |  |  |  | 
CS(=O)(=O)CCNCc1ccc(-c2ccc3ncnc(Nc4ccc(OCc5cccc(F)c5)c(Cl)c4)c3c2)o1.Cc1ccc(S(=O)(=O)O)cc1.Cc1ccc(S(=O)(=O)O)cc1 [Lapatinib, di-p-toluenesulfonate salt] |  |  |  |  | 63.38% | -29.52% | 62.65% | -21.39%
CS(=O)(=O)CCNCc1ccc(-c2ccc3ncnc(Nc4ccc(OCc5cccc(F)c5)c(Cl)c4)c3c2)o1 [Lapatinib] | -31.93% | 64.49% | -19.57% | 61.75% |  |  |  | 
C[C@]12O[C@H](C[C@]1(O)CO)n1c3ccccc3c3c4c(c5c6ccccc6n2c5c31)CNC4=O [Lestaurtinib] | 20.36% | 40.35% | 16.08% | 44.07% |  |  |  | 
Nc1nc(OCc2cc(Br)cs2)c2[nH]cnc2n1 [Lomeguatrib] | 5.31% | 47.30% | 8.11% | 48.02% |  |  |  | 
O=NN(CCCl)C(=O)NC1CCCCC1 [Lomustine] | 9.88% | 45.19% | 8.61% | 47.77% |  |  |  | 
CNC(=O)c1ccc(N2C(=S)N(c3ccc(C#N)c(C(F)(F)F)c3)C(=O)C2(C)C)cc1F [MDV3100_Enzaluamide] | -7.19% | 53.07% | -12.48% | 58.23% |  |  |  | 
COCCNCc1ccc(-c2cc3nccc(Oc4ccc(NC(=S)NC(=O)Cc5ccc(F)cc5)cc4F)c3s2)nc1 [MGCD-265] | 74.52% | 15.34% | 67.97% | 18.33% |  |  |  | 

Source: publication PMC7588595, “Small-molecule active pharmaceutical ingredients of approved cancer therapeutics inhibit human aspartate/asparagine-β-hydroxylase” (Bioorganic & Medicinal Chemistry, 2020)
